The source of these data is patent US20250186408A1, “TREATMENT OF PHARMACORESISTANT EPILEPSY” (Katholieke Universiteit Leuven, priority 2021, published 2025).

Structures are written as SMILES. Read-outs that look alike come from different tables or passages of the source.

The target in one assay is T1, INSR (Homo sapiens, UniProt P06213).
T1 construct: purchased Eurofins DiscoverX Corporation 87-1003DR; host or cells: E. coli BL21-derived host (T7 phage) or HEK-293
Nature of the assay: Binding (KINOMEscan) INSR Inhibitor. The note with it: for IC50: read-out: RC50, result type IC50; for Emax: read-out: Max response. Here is the method:
For most assays, kinase-tagged T7 phage strains were grown in parallel in 24-well blocks in an E. coli host derived from the BL21 strain. E. coli were grown to log-phase and infected with T7 phage from a frozen stock (multiplicity of infection=0.4) and incubated with shaking at 32° C. until lysis (90-150 min). The lysates were centrifuged (6,000×g) and filtered (0.2 μm) to remove cell debris. The remaining kinases were produced in HEK-293 cells and subsequently tagged with DNA for qPCR detection. Streptavidin-coated magnetic beads were treated with biotinylated small molecule ligands for 30 min at RT to generate affinity resins for kinase assays. The liganded beads were blocked with excess biotin and washed with blocking buffer (SeaBlock (Pierce), 1% BSA, 0.05% Tween 20, 1 mM DTT) to remove unbound ligand and to reduce non-specific phage binding. […] All reactions were performed in polypropylene 384-well plates in a final volume of 0.02 mL. […] The beads were then re-suspended in elution buffer (1×PBS, 0.05% Tween 20, 0.5 μM non-biotinylated affinity ligand) and incubated at RT with shaking for 30 min. The kinase concentration in the eluates was measured by qPCR.
The kinase concentration in the eluates was measured by qPCR. qPCR reactions were assembled by adding 2.5 μL of kinase eluate to 7.5 μL of qPCR master mix containing 0.15 μM amplicon primers and 0.15 μM amplicon probe. The qPCR protocol consisted of a 10 min hot start at 95° C., followed by 35 cycles of 95° C. for 15 sec, 60° C. for 1 min.
Binding constants (Kds) were calculated with a standard dose-response curve using the Hill equation: […]

Assay [1] concerns the target T2, ADRB2 (Homo sapiens, UniProt P07550). The assay can be described thus: cAMP ADRB2 Agonist. The conditions noted are these: for Emax: read-out: Max response. The assay is classed as cell-based. The procedure:
(§1) cAMP Hunter cell lines were expanded from freezer stocks. […] For Gi agonist determination, cells were incubated with sample in the presence of EC80 forskolin to induce response. For both conditions, media was aspirated from cells and replaced with 15 μL 2:1 HBSS/10 mM HEPES:cAMP XS+ Ab reagent. […] 5 μL of 4× sample was added to cells and incubated at 37° C. or room temperature (RT) for 30 or 60 min. Final assay vehicle concentration was 1%. […] Media was aspirated from cells and replaced with 10 μL 1:1 HBSS/HEPES:cAMP XS+ Ab reagent. […] For Gi coupled GPCRs, EC80 forskolin was included. […] Compound activity was analyzed using CBIS data analysis suite (ChemInnovation, CA).

In another assay the target is OPRD1 (Homo sapiens, UniProt P41143). The assay can be described thus: cAMP OPRD1 Agonist. The conditions noted are these: for Emax: read-out: Max response.
OPRD1, sequence (P41143 whole entry): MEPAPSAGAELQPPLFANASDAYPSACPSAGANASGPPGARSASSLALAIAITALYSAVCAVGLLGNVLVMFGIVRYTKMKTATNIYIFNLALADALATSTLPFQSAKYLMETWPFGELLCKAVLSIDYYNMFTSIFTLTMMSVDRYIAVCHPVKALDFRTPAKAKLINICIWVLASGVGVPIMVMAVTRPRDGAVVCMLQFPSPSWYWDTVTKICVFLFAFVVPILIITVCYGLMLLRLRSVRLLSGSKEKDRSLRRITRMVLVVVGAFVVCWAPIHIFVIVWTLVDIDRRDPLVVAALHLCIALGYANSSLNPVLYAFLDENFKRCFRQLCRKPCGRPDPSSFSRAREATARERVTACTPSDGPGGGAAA
Another assay has as its target T3, CHRM2 (Homo sapiens, UniProt P08172).
T3 sequence (P08172 1-466): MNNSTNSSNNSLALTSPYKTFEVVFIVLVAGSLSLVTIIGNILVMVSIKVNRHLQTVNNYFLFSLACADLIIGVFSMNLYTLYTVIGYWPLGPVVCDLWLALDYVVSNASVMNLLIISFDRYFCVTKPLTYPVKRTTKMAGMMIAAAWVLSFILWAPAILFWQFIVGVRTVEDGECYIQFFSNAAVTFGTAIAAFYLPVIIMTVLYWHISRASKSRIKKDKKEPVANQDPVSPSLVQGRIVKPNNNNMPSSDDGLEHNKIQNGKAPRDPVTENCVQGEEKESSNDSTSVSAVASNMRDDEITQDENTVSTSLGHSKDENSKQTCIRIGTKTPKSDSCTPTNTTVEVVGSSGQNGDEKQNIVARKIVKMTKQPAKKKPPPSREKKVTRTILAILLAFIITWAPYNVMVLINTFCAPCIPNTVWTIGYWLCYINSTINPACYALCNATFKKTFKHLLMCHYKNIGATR
Nature of the assay: cAMP CHRM2 Agonist. The note with it: for Emax: read-out: Max response.

Assay [2] deals with T4, GABAA (Homo sapiens, UniProt P14867+P18507+P47870). The assay can be described thus: Ion Channel GABAA Blocker. The assay is classed as cell-based. The note with it: read-out: Max response.
T4 sequence (P14867 28-456): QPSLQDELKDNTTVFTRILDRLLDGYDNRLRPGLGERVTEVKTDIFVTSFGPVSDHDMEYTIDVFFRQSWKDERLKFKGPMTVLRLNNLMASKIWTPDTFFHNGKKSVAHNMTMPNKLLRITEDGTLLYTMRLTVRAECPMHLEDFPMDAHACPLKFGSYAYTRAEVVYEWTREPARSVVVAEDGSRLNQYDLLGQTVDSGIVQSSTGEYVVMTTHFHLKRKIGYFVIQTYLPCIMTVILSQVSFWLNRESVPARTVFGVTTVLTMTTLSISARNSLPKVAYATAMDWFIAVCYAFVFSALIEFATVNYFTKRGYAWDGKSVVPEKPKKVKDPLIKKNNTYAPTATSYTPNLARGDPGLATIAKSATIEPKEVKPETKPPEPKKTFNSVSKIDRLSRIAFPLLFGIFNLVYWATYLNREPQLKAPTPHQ
T4 sequence (P47870 26-512): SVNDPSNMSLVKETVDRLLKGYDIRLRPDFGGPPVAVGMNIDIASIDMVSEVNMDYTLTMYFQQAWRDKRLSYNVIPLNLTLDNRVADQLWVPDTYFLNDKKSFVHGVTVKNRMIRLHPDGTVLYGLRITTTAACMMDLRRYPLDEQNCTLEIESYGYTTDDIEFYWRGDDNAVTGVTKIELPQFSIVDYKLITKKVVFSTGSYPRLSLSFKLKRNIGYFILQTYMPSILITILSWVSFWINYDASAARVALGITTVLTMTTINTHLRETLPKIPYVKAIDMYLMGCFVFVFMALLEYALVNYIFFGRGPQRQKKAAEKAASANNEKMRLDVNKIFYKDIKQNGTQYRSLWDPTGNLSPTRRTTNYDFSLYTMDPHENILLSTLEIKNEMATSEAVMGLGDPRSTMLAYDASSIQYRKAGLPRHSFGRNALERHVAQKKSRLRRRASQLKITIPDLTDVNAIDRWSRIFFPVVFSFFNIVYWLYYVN
T4 sequence (P18507 40-475): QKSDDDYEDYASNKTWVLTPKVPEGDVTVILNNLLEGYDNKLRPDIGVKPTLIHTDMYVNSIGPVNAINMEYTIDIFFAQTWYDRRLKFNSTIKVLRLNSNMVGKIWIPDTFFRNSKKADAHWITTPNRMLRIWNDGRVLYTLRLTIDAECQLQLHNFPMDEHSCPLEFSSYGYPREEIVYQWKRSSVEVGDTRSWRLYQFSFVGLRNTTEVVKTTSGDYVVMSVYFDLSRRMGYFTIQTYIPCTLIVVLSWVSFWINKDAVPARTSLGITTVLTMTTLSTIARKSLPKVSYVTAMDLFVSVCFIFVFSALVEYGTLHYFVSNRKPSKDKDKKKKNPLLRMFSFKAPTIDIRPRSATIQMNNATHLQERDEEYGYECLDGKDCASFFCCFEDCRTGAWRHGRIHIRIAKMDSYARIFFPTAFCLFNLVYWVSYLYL
For another assay, the target named is ADRB1 (Homo sapiens, UniProt P08588). Nature of the assay: cAMP ADRB1 Agonist. The note with it: for Emax: read-out: Max response. The assay is classed as cell-based. The procedure:
as §1

For assay [3], the target named is T4, GABAA. The assay can be described thus: Ion Channel GABAA Opener. The conditions noted are these: read-out: Max response. It is filed as cell-based.
In another assay the target is AVPR1A (Homo sapiens, UniProt P37288). Nature of the assay: Calcium Flux AVPR1A Antagonist. The assay is classed as cell-based. The conditions noted are these: for IC50: read-out: RC50, result type IC50; for Emax: read-out: Max response. The procedure:
(≤0.2% DMSO concentration). Assays were performed in 1× dye loading buffer consisting of 1× Dye (DiscoverX, Calcium No Wash^PLUS kit, Catalog No. 90-0091), 1× Additive A and 2.5 mM Probenecid in HBSS/20 mM HEPES. Probenecid was prepared fresh. Prior to testing, media was aspirated from cells and replaced with 25 μL dye loading buffer. Cells were incubated for 45 min at 37° C. and then 20 min at RT. For agonist determination, 25 μL of 2× compound in HBSS/20 mM HEPES was added using a FLIPR Tetra (MDS). […] 25 μL of 2× sample was added and cells were incubated for 30 min at RT in the dark to equilibrate plate temperature. After incubation, antagonist determination was initiated by addition of 25 μL of 1× compound with 3×EC80 agonist using FLIPR. For both agonist and antagonist formats, activity was measure on a FLIPR Tetra (MDS). Calcium mobilization was monitored for 2 min with a 5 sec baseline read.
FLIPR read—Area under the curve, was calculated for the entire 2 min read.
For orientation: Calcium flux is commonly read through the fluorescence of an indicator in the cells.

Assay [4] addresses T2, ADRB2. The assay can be described thus: cAMP ADRB2 Antagonist. The note with it: for Emax: read-out: Max response. It is filed as cell-based. Here is the method:
as §1

AVPR1A, sequence (P37288 whole entry): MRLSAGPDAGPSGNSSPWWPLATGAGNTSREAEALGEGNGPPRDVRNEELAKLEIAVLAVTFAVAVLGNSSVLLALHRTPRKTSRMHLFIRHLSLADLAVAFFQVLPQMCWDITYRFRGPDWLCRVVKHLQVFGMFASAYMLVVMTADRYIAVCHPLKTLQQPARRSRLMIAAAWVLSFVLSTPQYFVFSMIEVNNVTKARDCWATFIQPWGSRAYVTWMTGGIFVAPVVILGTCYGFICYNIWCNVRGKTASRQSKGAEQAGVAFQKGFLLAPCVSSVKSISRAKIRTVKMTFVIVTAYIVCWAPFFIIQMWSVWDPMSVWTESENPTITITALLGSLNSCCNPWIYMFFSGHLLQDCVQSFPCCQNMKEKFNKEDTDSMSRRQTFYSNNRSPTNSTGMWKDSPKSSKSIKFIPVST
ADRB1, sequence (P08588 whole entry): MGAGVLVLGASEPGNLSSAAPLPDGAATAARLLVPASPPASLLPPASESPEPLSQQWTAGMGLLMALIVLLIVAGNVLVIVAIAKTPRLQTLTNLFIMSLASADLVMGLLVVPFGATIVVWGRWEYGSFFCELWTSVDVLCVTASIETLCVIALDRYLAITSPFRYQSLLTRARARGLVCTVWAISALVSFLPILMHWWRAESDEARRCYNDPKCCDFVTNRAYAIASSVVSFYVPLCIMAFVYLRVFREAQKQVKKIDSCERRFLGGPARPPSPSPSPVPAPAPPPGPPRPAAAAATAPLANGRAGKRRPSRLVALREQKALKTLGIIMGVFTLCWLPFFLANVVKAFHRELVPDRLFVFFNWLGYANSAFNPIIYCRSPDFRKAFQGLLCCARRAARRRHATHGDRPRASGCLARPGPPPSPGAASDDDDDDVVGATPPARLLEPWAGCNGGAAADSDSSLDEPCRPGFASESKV
T1 sequence (P06213 28-1382): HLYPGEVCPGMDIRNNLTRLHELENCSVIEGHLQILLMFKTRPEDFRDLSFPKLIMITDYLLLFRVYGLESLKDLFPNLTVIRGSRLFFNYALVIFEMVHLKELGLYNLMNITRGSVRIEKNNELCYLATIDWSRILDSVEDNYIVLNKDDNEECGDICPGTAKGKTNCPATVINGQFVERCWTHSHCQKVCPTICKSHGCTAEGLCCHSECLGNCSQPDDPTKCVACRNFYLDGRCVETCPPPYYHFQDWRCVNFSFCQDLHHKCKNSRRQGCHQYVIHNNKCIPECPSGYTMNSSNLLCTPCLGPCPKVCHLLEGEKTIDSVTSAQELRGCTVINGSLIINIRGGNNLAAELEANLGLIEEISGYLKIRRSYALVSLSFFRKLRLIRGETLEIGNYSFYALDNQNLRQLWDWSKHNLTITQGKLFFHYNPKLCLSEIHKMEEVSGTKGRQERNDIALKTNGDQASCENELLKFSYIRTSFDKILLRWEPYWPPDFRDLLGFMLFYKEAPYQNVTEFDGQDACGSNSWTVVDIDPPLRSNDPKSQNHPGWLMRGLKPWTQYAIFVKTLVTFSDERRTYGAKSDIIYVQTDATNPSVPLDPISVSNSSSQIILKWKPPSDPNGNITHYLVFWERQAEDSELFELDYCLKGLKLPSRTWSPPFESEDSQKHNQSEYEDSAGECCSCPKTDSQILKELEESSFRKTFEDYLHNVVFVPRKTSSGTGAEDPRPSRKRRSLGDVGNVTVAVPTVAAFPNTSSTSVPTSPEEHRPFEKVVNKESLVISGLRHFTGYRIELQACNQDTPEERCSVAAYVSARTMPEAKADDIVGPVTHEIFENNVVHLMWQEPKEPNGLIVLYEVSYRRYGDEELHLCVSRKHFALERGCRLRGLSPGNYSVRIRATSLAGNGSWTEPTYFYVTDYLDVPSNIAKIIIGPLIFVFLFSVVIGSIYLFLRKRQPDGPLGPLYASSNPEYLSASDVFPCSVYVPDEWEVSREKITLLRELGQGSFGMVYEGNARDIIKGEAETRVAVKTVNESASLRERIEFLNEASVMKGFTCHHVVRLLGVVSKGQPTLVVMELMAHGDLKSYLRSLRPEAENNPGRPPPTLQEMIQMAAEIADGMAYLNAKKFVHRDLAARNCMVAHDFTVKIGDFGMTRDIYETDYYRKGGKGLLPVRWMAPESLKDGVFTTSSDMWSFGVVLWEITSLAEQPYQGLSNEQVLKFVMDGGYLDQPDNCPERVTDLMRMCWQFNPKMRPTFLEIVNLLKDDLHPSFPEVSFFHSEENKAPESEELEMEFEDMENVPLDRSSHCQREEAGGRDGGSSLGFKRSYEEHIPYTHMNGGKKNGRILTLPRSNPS
T2 sequence (P07550 whole entry): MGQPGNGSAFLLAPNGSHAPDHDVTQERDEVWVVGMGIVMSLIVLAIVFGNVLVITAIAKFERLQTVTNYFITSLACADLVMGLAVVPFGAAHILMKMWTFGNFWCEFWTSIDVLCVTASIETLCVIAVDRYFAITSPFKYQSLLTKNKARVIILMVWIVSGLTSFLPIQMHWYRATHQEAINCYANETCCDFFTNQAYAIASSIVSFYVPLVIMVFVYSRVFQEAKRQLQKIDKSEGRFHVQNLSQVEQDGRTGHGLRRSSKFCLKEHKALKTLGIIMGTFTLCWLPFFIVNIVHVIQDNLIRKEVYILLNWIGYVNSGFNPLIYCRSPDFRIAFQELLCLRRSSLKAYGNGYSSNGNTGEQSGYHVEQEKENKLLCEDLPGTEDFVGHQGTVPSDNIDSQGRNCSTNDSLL
Method for CHRM2: In vitro pharmacological profiling of compounds was done against 78 functional assays for 47 common off-targets (30) by Eurofins DiscoverX Corporation (Fremont, CA, USA) using their SAFETYscan E/IC50 ELECT service (Cat Ref 87-1003DR, Safety47 Panel Dose Response). […] Compounds were tested in a range of 10 concentrations, following a 3-fold serial dilution, starting from 10 μM. The assays were performed utilizing the PathHunter enzyme fragment complementation (EFC) technology, FLIPR®-based cellular screening assays, and KINOMEscan kinase binding assays.
(§2) cAMP Hunter cell lines were expanded from freezer stocks. Prior to testing, cells were seeded in a total volume of 20 μL into white walled 384-well microplates and incubated at 37° C. cAMP modulation was determined using the DiscoverX HitHunter cAMP XS+ assay. For Gs agonist determination, cells were incubated with sample to induce response. For Gi agonist determination, cells were incubated with sample in the presence of EC80 forskolin to induce response. For both conditions, media was aspirated from cells and replaced with 15 μL 2:1 HBSS/10 mM HEPES:cAMP XS+ Ab reagent. Intermediate dilution of sample stocks was performed to generate 4× sample in assay buffer (containing 4×EC80 forskolin in the case of antagonist determination). 5 μL of 4× sample was added to cells and incubated at 37° C. or room temperature (RT) for 30 or 60 min. Final assay vehicle concentration was 1%. For antagonist determination, cells were pre-incubated with sample followed by agonist challenge at the EC80 concentration. Media was aspirated from cells and replaced with 10 μL 1:1 HBSS/HEPES:cAMP XS+ Ab reagent. 5 μL of 4× compound was added to the cells and incubated at 37° C. or RT for 30 min. 5 μL of 4×EC80 agonist was added to the cells and incubated at 37° C. or RT for 30 or 60 min. For Gi coupled GPCRs, EC80 forskolin was included. […] Microplates were read following signal generation with a PerkinElmer Envision™ instrument for chemiluminescent signal detection. Compound activity was analyzed using CBIS data analysis suite (ChemInnovation, CA).
Method for OPRD1: In vitro pharmacological profiling of compounds was done against 78 functional assays for 47 common off-targets (30) by Eurofins DiscoverX Corporation (Fremont, CA, USA) using their SAFETYscan E/IC50 ELECT service (Cat Ref 87-1003DR, Safety47 Panel Dose Response). […] Compounds were tested in a range of 10 concentrations, following a 3-fold serial dilution, starting from 10 μM.
as §2

Consider `CC(C)(C)c1ccc(C#CC(O)c2ccccc2)cc1` (racemic) [Compound 3.3, rac-3-(4-(tert-butyl)phenyl)-1-phenylprop-2-yn-1-ol], for which the IC50 on INSR (Binding INSR Inhibitor), at AVPR1A (Calcium Flux AVPR1A Antagonist) and against ADRB2 [4] was more than 10 µM throughout. The Emax amounted to 10.3% at INSR; 1.9% at ADRB2 [1]; 3.6% at OPRD1; 0% on CHRM2; 8.7% on GABAA [2]; 0.6% at ADRB1. Also, the Emax on GABAA [3], on AVPR1A and at ADRB2 [4] was 0% each time. Besides, the EC50 at ADRB2 [1], on OPRD1, at CHRM2 and at ADRB1 was more than 10 µM each time.

`Clc1cccc(C#Cc2n[nH]c3ncccc23)c1` [Compound 10.1, 3-((3-chlorophenyl)ethynyl)-1H-pyrazolo[3,4-b]pyridine]: the Emax was determined as 0% at INSR (Binding INSR Inhibitor); 0.3% at ADRB2 [1] (cAMP ADRB2 Agonist); 12.1% at OPRD1; 32.5% at CHRM2; 5.2% on GABAA [2]; 0% at ADRB1 (cAMP ADRB1 Agonist). The Emax came to 1.3% at GABAA [3], 0% on AVPR1A (Calcium Flux AVPR1A Antagonist) and 39.9% on ADRB2 [4] (cAMP ADRB2 Antagonist). Further, the IC50 was more than 10 µM on INSR (Binding INSR Inhibitor); more than 10 µM on AVPR1A (Calcium Flux AVPR1A Antagonist); more than 10 µM at ADRB2 [4] (cAMP ADRB2 Antagonist, read-out: RC50, result type IC50). For the same compound, the EC50 was more than 10 µM at ADRB2 [1] (cAMP ADRB2 Agonist, read-out: RC50, result type EC50); more than 10 µM at OPRD1; more than 10 µM at CHRM2; more than 10 µM at ADRB1 (cAMP ADRB1 Agonist, read-out: RC50, result type EC50).

For orientation: IC50 means the point on the concentration scale where inhibition reaches its midpoint. The term EC50 denotes the concentration that produces a half-maximal response.
